Source: ChEMBL document CHEMBL3046427, “Wound healing phytoconstituents from seed kernel of Entada pursaetha DC. and their molecular docking studies with glycogen synthase kinase 3-” (2012)
Activity calls are given as the source filed them. The rule behind the calls is not given here.

Columns and labels:
Rattus norvegicus [1] = assay: Wound healing activity in Rattus norvegicus Swiss albino Wistar (rat) excision wound model assessed as wound closure at 0.2% w/v administered topically measured on day 12 post-wounding (reference value: 69.04 +/- 1.05%); type: functional
Rattus norvegicus [2] = assay: Wound healing activity in Rattus norvegicus Swiss albino Wistar (rat) dead space wound model assessed as increase in collagenation of granulation tissue at 10 mg/ml, po measured on day 10 post-wounding by histological analysis relative to control; type: functional, organism-based
Rattus norvegicus [3] = assay: Wound healing activity in Rattus norvegicus Swiss albino Wistar (rat) dead space wound model assessed as granular tissue weight per 100 g tissue at 10 mg/ml, po measured on day 10 post-wounding (reference value: 31 +/- 0.93 mg); type: functional
Rattus norvegicus [4] = assay: Wound healing activity in Rattus norvegicus Swiss albino Wistar (rat) dead space wound model assessed as tissue breaking strength at 10 mg/ml, po measured on day 10 post-wounding (reference value: 260.83 +/- 14.05 g); type: functional
Rattus norvegicus [5] = assay: Wound healing activity in Rattus norvegicus Swiss albino Wistar (rat) dead space wound model assessed as decrease in macrophages at 10 mg/ml, po measured on day 10 post-wounding by histological analysis relative to control; type: functional, organism-based
Rattus norvegicus [6] = assay: Wound healing activity in Rattus norvegicus Swiss albino Wistar (rat) excision wound model assessed as wound closure at 0.2% w/v administered topically measured on day 8 post-wounding (reference value: 48.75 +/- 1.34%); type: functional
Rattus norvegicus [7] = assay: Wound healing activity in Rattus norvegicus Swiss albino Wistar (rat) dead space wound model assessed as hydroxyproline content per 100 g tissue at 10 mg/ml, po measured on day 10 post-wounding by Neuman-Logan method (reference value: 1369.67 +/- 10.54 ug); type: functional
Rattus norvegicus [8] = assay: Wound healing activity in Rattus norvegicus Swiss albino Wistar (rat) incision wound model assessed as skin breaking strength at 10 mg/ml, po measured on day 10 by tensiometric analysis (reference value: 400 +/- 28.87 g); type: functional
Rattus norvegicus [9] = assay: Wound healing activity in Rattus norvegicus Swiss albino Wistar (rat) excision wound model assessed as wound closure at 0.2% w/v administered topically measured on day 16 post-wounding (reference value: 83.31 +/- 1.06%); type: functional
Rattus norvegicus [10] = assay: Wound healing activity in Rattus norvegicus Swiss albino Wistar (rat) excision wound model assessed as time of epithelialization at 0.2% w/v administered topically (reference value: 24 +/- 0.26 days); type: functional
Rattus norvegicus [11] = assay: Wound healing activity in Rattus norvegicus Swiss albino Wistar (rat) excision wound model assessed as wound closure at 0.2% w/v administered topically measured on day 4 post-wounding (reference value: 25.59 +/- 1.79%); type: functional
Rattus norvegicus [12] = assay: Wound healing activity in Rattus norvegicus Swiss albino Wistar (rat) dead space wound model assessed as tissue breaking strength at 15 mg/ml, po measured on day 10 post-wounding (reference value: 260.83 +/- 14.05 g); type: functional
Rattus norvegicus [13] = assay: Wound healing activity in Rattus norvegicus Swiss albino Wistar (rat) dead space wound model assessed as hydroxyproline content per 100 g tissue at 15 mg/ml, po measured on day 10 post-wounding by Neuman-Logan method (reference value: 1369.67 +/- 10.54 ug); type: functional
Rattus norvegicus [14] = assay: Wound healing activity in Rattus norvegicus Swiss albino Wistar (rat) incision wound model assessed as skin breaking strength at 15 mg/ml, po measured on day 10 post-wounding by tensiometric analysis (reference value: 400 +/- 28.87 g); type: functional
Rattus norvegicus [15] = assay: Wound healing activity in Rattus norvegicus Swiss albino Wistar (rat) dead space wound model assessed as granular tissue weight per 100 g tissue at 15 mg/ml, po measured on day 10 post-wounding (reference value: 31 +/- 0.93 mg); type: functional
Rattus norvegicus [16] = assay: Wound healing activity in po dosed Rattus norvegicus Swiss albino Wistar (rat) incision wound model assessed as skin breaking strength measured on day 10 post-wounding by tensiometric analysis (reference value: 400 +/- 28.87 g); type: functional
Rattus norvegicus [17] = assay: Wound healing activity in Rattus norvegicus Swiss albino Wistar (rat) dead space wound model assessed as hydroxyproline content per 100 g tissue at 5 mg/ml, po measured on day 10 post-wounding by Neuman-Logan method (reference value: 1369.67 +/- 10.54 ug); type: functional
Rattus norvegicus [18] = assay: Wound healing activity in Rattus norvegicus Swiss albino Wistar (rat) incision wound model assessed as skin breaking strength at 5 mg/ml, po measured on day 10 post-wounding by tensiometric analysis (reference value: 400 +/- 28.87 g); type: functional
Rattus norvegicus [19] = assay: Wound healing activity in Rattus norvegicus Swiss albino Wistar (rat) dead space wound model assessed as tissue breaking strength at 5 mg/ml, po measured on day 10 post-wounding (reference value: 260.83 +/- 14.05 g); type: functional
Rattus norvegicus [20] = assay: Wound healing activity in Rattus norvegicus Swiss albino Wistar (rat) dead space wound model assessed as granular tissue weight per 100 g tissue at 5 mg/ml, po measured on day 10 post-wounding (reference value: 31 +/- 0.93 mg); type: functional

Compound: CC1(C)CC[C@]2(C(=O)O)[C@H](O)[C@H](O)[C@]3(C)C(=CC[C@@H]4[C@@]5(C)CC[C@H](O)C(C)(C)[C@@H]5CC[C@]43C)[C@@H]2C1 [ENTAGENIC ACID]
- Activity (Rattus norvegicus [1]): 76.38%
- Activity (Rattus norvegicus [2]): Active
- Activity (Rattus norvegicus [3]): 53.11 mg
- Activity (Rattus norvegicus [4]): 549.83 g
- Activity (Rattus norvegicus [5]): Active
- Activity (Rattus norvegicus [6]): 65.21%
- Activity (Rattus norvegicus [7]): 2001.33 µg
- Activity (Rattus norvegicus [8]): 655.67 g
- Activity (Rattus norvegicus [9]): 96.08%
- Time (Rattus norvegicus [10]): 18.08 days
- Activity (Rattus norvegicus [11]): 33.39%

Compound: O=C(O)Cc1cc(O)ccc1O[C@@H]1O[C@H](CO)[C@@H](O)[C@H](O)[C@H]1O [PHASEOLOIDIN]
- Activity (Rattus norvegicus [12]): 450.17 g
- Activity (Rattus norvegicus [1]): 70.08%
- Activity (Rattus norvegicus [6]): 52.15%
- Activity (Rattus norvegicus [13]): 1690.33 µg
- Activity (Rattus norvegicus [14]): 490.33 g
- Activity (Rattus norvegicus [9]): 88.5%
- Activity (Rattus norvegicus [15]): 43.92 mg
- Time (Rattus norvegicus [10]): 21.16 days
- Activity (Rattus norvegicus [11]): 27.08%

Compound: NC(=O)N/N=C/c1ccc([N+](=O)[O-])o1 [NITROFURAZONE]
- Activity (Rattus norvegicus [1]): 91.32%
- Activity (Rattus norvegicus [16]): 683.33 g
- Activity (Rattus norvegicus [6]): 80.7%
- Activity (Rattus norvegicus [9]): 97.64%
- Time (Rattus norvegicus [10]): 16.33 days
- Activity (Rattus norvegicus [11]): 41.46%

Compound: CS/C=C/C(=O)NCCO [ENTADAMIDE]
- Activity (Rattus norvegicus [1]): 71.27%
- Activity (Rattus norvegicus [17]): 1891.17 µg
- Activity (Rattus norvegicus [18]): 533.5 g
- Activity (Rattus norvegicus [6]): 57.32%
- Activity (Rattus norvegicus [19]): 463.33 g
- Activity (Rattus norvegicus [9]): 92.22%
- Activity (Rattus norvegicus [20]): 50.75 mg
- Time (Rattus norvegicus [10]): 19.92 days
- Activity (Rattus norvegicus [11]): 28.28%
